# Assay results reported in publication PMC3913620, “Preclinical Evaluation of the Novel, Orally Bioavailable Selective Inhibitor of Nuclear Export (SINE) KPT-335 in Spontaneous Canine Cancer: Results of a Phase I Study” (PLoS ONE, 2014).
# Like-named read-outs stand apart in the source and are kept apart here.
# Experiments:
# Jurkat cells = assay: MTS cell viability assay, Jurkat; assay type: cell-based, human; details: 72 hours, read-out: IC50 (± S.D.), Jurkat
# Procedure: Cryopreserved tumor cells obtained from sterile lymph node biopsy samples from dogs with diffuse large B cell lymphoma (DLBCL) were cultured with 100 ng/mL of megaCD40L (Enzo Life Science, Plymouth Meeting, PA) as previously described, [27]. The human T-cell leukemia cell line, Jurkat, was from the American Type Culture Collection (ATCC, Manassas, VA) and cultured in RPMI1640 medium (Gibco/BRL, Grand Island, NY) containing 10% fetal bovine serum (FBS; Atlas Biologicals, Fort Collins, CO), 2-mercaptoethanol (Gibco/BRL), HEPES, L-glutamine, sodium pyruvate (Mediatech Inc., Manassas, VA), non-essential amino acids (Sigma Aldrich, St. Louis, MO), and Primocin (Invivogen, San Diego, CA). The canine DLBCL cell line CLBL1 obtained from Dr. Barbara Rütgen (University of Vienna, Austria), [29] and human DLBCL cell lines OCI-Ly3 [30], [31] and OCI-Ly10 [32] obtained from Dr. Anne Novak (Mayo Clinic Cancer Center, Rochester, MN) were cultured in complete Iscove’s Modified Dulbecco’s medium (IMDM) containing 20% FBS, L-glutamine, and Primocin. All cells were maintained at 37°C in a humidified 5% CO2 atmosphere. The following additional canine tumor cell lines were used to evaluate response to SINE compounds: C2, mast cell tumor line provided by Dr. George Caughey, UCSF, San Francisco, CA [33]; OSA16, osteosarcoma cell line, provided by Dr. Jaime Modiano, UM, Minneapolis, MN [34]; and 323610-3, malignant melanoma cell line, provided by Dr. Michael Kent, UCD, Davis, CA [35]. […]
# (§1) Cell viability for lymphoid lines was determined by the MTS (3-(4, 5-dimethylthiazol-2-yl)-5-(3-carboxymethoxyphenyl)-2-(4-sulfophenyl)-2H-tetrazolium) assay using CellTiter 96® AQueous One Solution Cell Proliferation Assay Kit (Promega, Madison, WI). […] After 72 hours, 20 µL of MTS solution was added to each well and cells were incubated for another 4 hours before measuring absorbance at 490 nm using a Wallac Victor 1420 Multilabel Counter (Perkin Elmer, Waltham, MA). The IC50 of SINE was calculated using Prism 6 software (GraphPad Software, Inc., La Jolla, CA).
# OCI-Ly3 DLBCL cells = assay: MTS cell viability assay, OCI-Ly3; assay type: cell-based, human; details: 72 hours, read-out: IC50 (± S.D.), OCI-Ly3
# Procedure: (§2) Cryopreserved tumor cells obtained from sterile lymph node biopsy samples from dogs with diffuse large B cell lymphoma (DLBCL) were cultured with 100 ng/mL of megaCD40L (Enzo Life Science, Plymouth Meeting, PA) as previously described, [27]. The human T-cell leukemia cell line, Jurkat, was from the American Type Culture Collection (ATCC, Manassas, VA) and cultured in RPMI1640 medium (Gibco/BRL, Grand Island, NY) containing 10% fetal bovine serum (FBS; Atlas Biologicals, Fort Collins, CO), 2-mercaptoethanol (Gibco/BRL), HEPES, L-glutamine, sodium pyruvate (Mediatech Inc., Manassas, VA), non-essential amino acids (Sigma Aldrich, St. Louis, MO), and Primocin (Invivogen, San Diego, CA). […]
# as §1
# OCI-Ly10 DLBCL cells = assay: MTS cell viability assay, OCI-Ly10; assay type: cell-based, human; details: 72 hours, read-out: IC50 (± S.D.), OCI-Ly10
# Procedure: as §2, §1
# [1] = system: primary canine DLBCL cells; assay: MTS cell viability assay, primary canine DLBCL samples; assay type: cell-based
# Procedure: Cryopreserved tumor cells obtained from sterile lymph node biopsy samples from dogs with diffuse large B cell lymphoma (DLBCL) were cultured with 100 ng/mL of megaCD40L (Enzo Life Science, Plymouth Meeting, PA) as previously described, [27]. The human T-cell leukemia cell line, Jurkat, was from the American Type Culture Collection (ATCC, Manassas, VA) and cultured in RPMI1640 medium (Gibco/BRL, Grand Island, NY) containing 10% fetal bovine serum (FBS; Atlas Biologicals, Fort Collins, CO), 2-mercaptoethanol (Gibco/BRL), HEPES, L-glutamine, sodium pyruvate (Mediatech Inc., Manassas, VA), non-essential amino acids (Sigma Aldrich, St. Louis, MO), and Primocin (Invivogen, San Diego, CA). The canine DLBCL cell line CLBL1 obtained from Dr. Barbara Rütgen (University of Vienna, Austria), [29] and human DLBCL cell lines OCI-Ly3 [30], [31] and OCI-Ly10 [32] obtained from Dr. Anne Novak (Mayo Clinic Cancer Center, Rochester, MN) were cultured in complete Iscove’s Modified Dulbecco’s medium (IMDM) containing 20% FBS, L-glutamine, and Primocin. All cells were maintained at 37°C in a humidified 5% CO2 atmosphere. The following additional canine tumor cell lines were used to evaluate response to SINE compounds: C2, mast cell tumor line provided by Dr. George Caughey, UCSF, San Francisco, CA [33]; OSA16, osteosarcoma cell line, provided by Dr. Jaime Modiano, UM, Minneapolis, MN [34]; and 323610-3, malignant melanoma cell line, provided by Dr. Michael Kent, UCD, Davis, CA [35]. All cell lines were cultured in complete RPMI media containing 10% FBS, antibiotic/antimycotic, HEPES, sodium pyruvate, nonessential amino acids and Glutamax (media supplements from Gibco).
# Cell viability for lymphoid lines was determined by the MTS (3-(4, 5-dimethylthiazol-2-yl)-5-(3-carboxymethoxyphenyl)-2-(4-sulfophenyl)-2H-tetrazolium) assay using CellTiter 96® AQueous One Solution Cell Proliferation Assay Kit (Promega, Madison, WI). Briefly, for lymphoid cell lines, 5×10^4 cells (or 1×10^5 primary DLBCL cells) were cultured in 100 µL of complete medium in 96-well plates in the presence of SINE compounds. After 72 hours, 20 µL of MTS solution was added to each well and cells were incubated for another 4 hours before measuring absorbance at 490 nm using a Wallac Victor 1420 Multilabel Counter (Perkin Elmer, Waltham, MA). The IC50 of SINE was calculated using Prism 6 software (GraphPad Software, Inc., La Jolla, CA).
# Oral bioavailability = assay type: in vivo; details: in vivo, po
# XPO1 = XPO1 inhibition activity; assay type: biochemical
# [2] = primary sample #5, 72 hours, read-out: IC50, DLBCL#5
IC50 (OCI-Ly3 DLBCL cells),IC50 (OCI-Ly10 DLBCL cells),oral bioavailability (Oral bioavailability),Structure (SMILES),IC50 (Jurkat cells),"IC50 ([1]; mean of primary canine DLBCL samples (n = 6), 72 hours, read-out: IC50 (± S.D.), Canine DLBCLs)","IC50 ([1]; primary sample #1, 72 hours, read-out: IC50, DLBCL#1)","IC50 ([1]; primary sample #2, 72 hours, read-out: IC50, DLBCL#2)","IC50 ([1]; primary sample #3, 72 hours, read-out: IC50, DLBCL#3)","IC50 ([1]; primary sample #4, 72 hours, read-out: IC50, DLBCL#4)","IC50 [1, 2]","XPO1 inhibition activity, fold less than the cis-isomer (XPO1)"
24.1 nM,246 nM,limited oral bioavailability,COc1cc(-c2ncn(/C=C\C(=O)OC(C)C)n2)cc(C(F)(F)F)c1 [KPT-185],8.7 ± 0.7 nM,13.3 ± 6.2 nM,13.1 nM,9 nM,12.2 nM,4.9 nM,21.6 nM,
,,,COc1cc(-c2ncn(/C=C/C(=O)OC(C)C)n2)cc(C(F)(F)F)c1 [KPT-185 trans],> 1000 nM,,,,,,> 1000 nM,~100 fold
